From US20160257651A1, “NOVEL COMPOUND WITH ANTIBACTERIAL ACTIVITY” (priority 2013, published 2016)
≈ marks a conversion by molar mass, not a printed value. Like-named read-outs stand apart in the source and are kept apart here.

Key:
S. aureus Mu50 = experiment: microbe, parasite or virus in culture; format: cell-based, Staphylococcus aureus; conditions: for MIC: S. aureus Mu50, quinolone-resistant MRSA, ParC S80F, GyrA S84L; for MIC ratio (Mu50 MIC/FDA209P MIC): MIC for S. aureus Mu50 / MIC for S. aureus FDA209P
Protocol: (§1) Then, the cell suspension was diluted 500 times with CAMHB mentioned above.

[1] = tested on: S. aureus FDA209P (ATCC 6538P); experiment: microbe, parasite or virus in culture; format: cell-based, Staphylococcus aureus; conditions: quinolone-susceptible MSSA, ParC 80S, GyrA 84S
Protocol: as §1

E. coli strain 1708 = experiment: Antibacterial activity against Escherichia coli
Source text: (§6) The numerical values in the tables indicate MIC (mg/L), Res means resistant bacterium, and Sus means susceptible bacterium.
(§7) Antibacterial activities against Escherichia coli of the compounds shown Table 19 were examined by the following method.
(§8) After completion of the culture, the cells were suspended in fresh TBS to prepare a cell suspension showing an absorbance of 0.3 at 578 nm.

E. coli strain 1709 = experiment: Antibacterial activity against Escherichia coli
Source text: as §6, §7, §8

S. pneumoniae KBSP11 = experiment: MIC against pneumococcus, CAMHB with 5 mass % LHB; format: cell-based, Streptococcus pneumoniae; conditions: Streptococcus pneumoniae, PRSP
Protocol: (§2) The S. pneumoniae strains used for this test belong to any one of the categories of penicillin-susceptible pneumococcus (penicillin-susceptible Streptococcus pneumoniae, PSSP), penicillin-intermediate pneumococcus (penicillin-intermediate Streptococcus pneumoniae, PISP), and penicillin-resistant pneumococcus (penicillin-resistant Streptococcus pneumoniae, PRSP).
(§3) The lysed horse blood was prepared by adding sterilized water to horse sterile defibered blood (produced by Nippon Bio-Supp. Center) at a ratio of 1:1, subjecting the mixture to freezing and thawing 5 times, then centrifuging the mixture twice at 10,000 rpm for 20 minutes, and filtering the supernatant through a filter.
(§4) The S. pneumoniae strains mentioned in Table 11 were each cultured overnight at 37° C. on a blood agar medium as stationary culture. The blood agar medium was prepared by adding 5 mass % ovine sterile defibered blood (produced by Nippon Bio-Supp. Center) to a heart infusion agar medium (produced by EIKEN CHEMICAL). Each S. pneumoniae strain cultured overnight at 37° C. as stationary culture was further subcultured overnight at 37° C. on fresh blood agar medium as stationary culture. After completion of the culture, cells of each pneumococcus strain were collected with a swab, and suspended in physiological saline, and the suspension was adjusted with physiological saline to show absorbance of 0.08 to 0.13 at 625 nm as measured with an absorbance meter (produced by Amersham), and further diluted 200 times with CAMHB containing 5 mass % LHB.
(§5) In Table 11, the amino acid substitution mutations in QRDR of the strains are underlined.

S. pneumoniae BCLSP37 = experiment: MIC against pneumococcus, CAMHB with 5 mass % LHB; format: cell-based, Streptococcus pneumoniae; conditions: Streptococcus pneumoniae, BCLSP37, S. pneumoniae BCLSP37, PSSP, quinolone-resistant; ParC 79Phe, GyrA 85Lys; read-out: MIC
Protocol: as §2, §3, §4, §5

[2] = Staphylococcus aureus, ATCC 6538P / FDA209P / MSSA, read-out: MIC

CNc1ncc(-c2ccc3c(CO)cc(=O)n(C4CC4)c3c2)cc1C [J-165]
MIC (S. aureus Mu50; Staphylococcus aureus, MRSA): 8 µg/mL (≈ 23.9 µM)
MIC [1, 2]: 4 µg/mL (≈ 11.9 µM)
MIC (E. coli strain 1708): 128 µg/mL (≈ 382 µM)
MIC (E. coli strain 1709): 128 µg/mL (≈ 382 µM)

CCC(=O)OCc1cc(=O)n(C2CC2)c2cc(-c3ccc(N)cc3)c(F)cc12 [J-138, [7-(4-aminophenyl)-1-cyclopropyl-6-fluoro-2-oxo-4-hydroquinolyl]methyl propanoate]
MIC ratio (Mu50 MIC/FDA209P MIC) (S. aureus Mu50): 1
MIC (S. aureus Mu50): 2 µg/mL (≈ 5.26 µM)
MIC [1]: 2 µg/mL (≈ 5.26 µM)

CC(=O)N1COc2c1ccc1c(CO)cc(=O)n(C)c21 [J-125a, 3-acetyl-6-(hydroxymethyl)-9-methyl-8-oxo 9-hydro-2H-1,3-oxazolino[4,5-h]quinoline]
MIC ratio (Mu50 MIC/FDA209P MIC) (S. aureus Mu50): 0.125
MIC (S. aureus Mu50): 16 µg/mL (≈ 58.3 µM)
MIC [1]: 128 µg/mL (≈ 467 µM)

O=c1cc(CO)c2ccc(-c3ccc(O)cc3)cc2n1C1CC1 [J-121Cp, 1-cyclopropyl-4-hydroxymethyl-7-(4-hydroxy-phenyl)-1H-quinolin-2-one]
MIC ratio (Mu50 MIC/FDA209P MIC) (S. aureus Mu50): 0.5
MIC (S. aureus Mu50; Staphylococcus aureus, MRSA): 0.5 µg/mL (≈ 1.63 µM)
MIC [1, 2]: 1 µg/mL (≈ 3.25 µM)

9-(hydroxyphenyl)-6-methyloxazolo[5,4,3-ij]quinolin-4(2H)-one [J-2.1.1]
MIC ratio (Mu50 MIC/FDA209P MIC) (S. aureus Mu50): 0.5
MIC (S. aureus Mu50): 16 µg/mL
MIC [1]: 32 µg/mL

COCc1cc(=O)n(C2CC2)c2cc(-c3ccc(O)cc3)c(F)cc12 [J-175]
MIC (S. aureus Mu50; Staphylococcus aureus, MRSA): 0.5 µg/mL (≈ 1.47 µM)
MIC [1, 2]: 1 µg/mL (≈ 2.95 µM)
MIC (E. coli strain 1708): 128 µg/mL (≈ 377 µM)
MIC (S. pneumoniae KBSP11): 32 µg/mL (≈ 94.3 µM)
MIC (S. pneumoniae BCLSP37): 8 µg/mL (≈ 23.6 µM)
MIC (E. coli strain 1709): 128 µg/mL (≈ 377 µM)

Cc1cc2c(CO)cc(=O)n(C3CC3)c2cc1-c1ccc(O)cc1 [J-140, 1-cyclopropyl-4-(hydroxymethyl)-7-(4-hydroxyphenyl)-6-methylhydroquinolin-2-one]
MIC ratio (Mu50 MIC/FDA209P MIC) (S. aureus Mu50): 0.25
MIC (S. aureus Mu50): 0.25 µg/mL (≈ 0.778 µM)
MIC [1]: 1 µg/mL (≈ 3.11 µM)

COc1c(-c2ccc(O)cc2)ccc2c(CO)cc(=O)n(C3CC3)c12 [J-157, 1-cyclopropyl-8-methoxyl-4-(hydroxymethyl)-7-(4-hydroxyphenyl)hydroquinolin-2-one]
MIC ratio (Mu50 MIC/FDA209P MIC) (S. aureus Mu50): 0.5
MIC (S. aureus Mu50): 2 µg/mL (≈ 5.93 µM)
MIC [1]: 4 µg/mL (≈ 11.9 µM)

CC(=O)OCc1cc(=O)n(C2CC2)c2cc(-c3ccc(O)cc3)c(F)cc12 [J-131ACp, [1-cyclopropyl-6-fluoro-7-(4-hydroxyphenyl)-2-oxo-4-hydroquinolyl]methyl.acetate]
MIC ratio (Mu50 MIC/FDA209P MIC) (S. aureus Mu50): 0.0625
MIC (S. aureus Mu50; Staphylococcus aureus, MRSA): 4 µg/mL
MIC [1, 2]: 64 µg/mL
MIC (E. coli strain 1708): 128 µg/mL
MIC (E. coli strain 1709): 128 µg/mL

O=c1cc(CO)c2cc(Cl)c(-c3ccc(O)cc3)cc2n1C1CC1 [J-152]
MIC (S. aureus Mu50; Staphylococcus aureus, MRSA): 0.25 µg/mL (≈ 0.731 µM)
MIC [1, 2]: 1 µg/mL (≈ 2.93 µM)
MIC (E. coli strain 1708): 128 µg/mL (≈ 374 µM)
MIC (E. coli strain 1709): 128 µg/mL (≈ 374 µM)

Nc1ccc(-c2cc3c(cc2F)c(COC(=O)CC(=O)O)cc(=O)n3C2CC2)cc1 [J-135, 2-({[7-(4-aminophenyl)-1-cyclopropyl-6-fluoro-2-oxo-4-hydroquinolyl]methyl}oxycarbonyl)acetic acid]
MIC ratio (Mu50 MIC/FDA209P MIC) (S. aureus Mu50): 1
MIC (S. aureus Mu50): 8 µg/mL (≈ 19.5 µM)
MIC [1]: 8 µg/mL (≈ 19.5 µM)

NC(=O)c1cc(=O)n(C2CC2)c2cc(-c3ccc(O)cc3)c(F)cc12 [J-173]
MIC (S. aureus Mu50; Staphylococcus aureus, MRSA): 2 µg/mL (≈ 5.91 µM)
MIC [1, 2]: 8 µg/mL (≈ 23.6 µM)
MIC (E. coli strain 1708): 128 µg/mL (≈ 378 µM)
MIC (S. pneumoniae KBSP11): 8 µg/mL (≈ 23.6 µM)
MIC (S. pneumoniae BCLSP37): 8 µg/mL (≈ 23.6 µM)
MIC (E. coli strain 1709): 128 µg/mL (≈ 378 µM)

CCc1cc(=O)n(C2CC2)c2cc(-c3ccc(O)cc3)c(F)cc12 [J-150, 1-cyclopropyl-4-ethyl-6-fluoro-7-(4-hydroxyphenyl)hydroquinolin-2-one]
MIC ratio (Mu50 MIC/FDA209P MIC) (S. aureus Mu50): 0.0625
MIC (S. aureus Mu50): 0.25 µg/mL (≈ 0.773 µM)
MIC [1]: 4 µg/mL (≈ 12.4 µM)

C[C@H]1COc2c(-c3ccc(O)cc3)c(F)cc3c(CO)cc(=O)n1c23 [J-149A]
MIC (S. aureus Mu50; Staphylococcus aureus, MRSA): 0.5 µg/mL (≈ 1.46 µM)
MIC [1, 2]: 0.25 µg/mL (≈ 0.732 µM)
MIC (E. coli strain 1708): 128 µg/mL (≈ 375 µM)
MIC (E. coli strain 1709): 16 µg/mL (≈ 46.9 µM)

O=c1cc(CO)c2cc(F)c(N3CCC(O)CC3)cc2n1C1CC1 [J-147, 1-cyclopropyl-6-fluoro-4-(hydroxymethyl)-7-(4-hydroxypiperidin-1-yl)quinolin-2(1H)-one]
MIC ratio (Mu50 MIC/FDA209P MIC) (S. aureus Mu50): 0.5
MIC (S. aureus Mu50; Staphylococcus aureus, MRSA): 16 µg/mL (≈ 48.1 µM)
MIC [1, 2]: 32 µg/mL (≈ 96.3 µM)

CN1CCN(c2cc3c(cc2F)c(CO)cc(=O)n3C2CC2)CC1 [J-146, 1-cyclopropyl-6-fluoro-4-(hydroxymethyl)-7-(4-methylpiperazin-1-yl)quinolin-2(1H)-one]
MIC ratio (Mu50 MIC/FDA209P MIC) (S. aureus Mu50): 1
MIC (S. aureus Mu50; Staphylococcus aureus, MRSA): 16 µg/mL (≈ 48.3 µM)
MIC [1, 2]: 16 µg/mL (≈ 48.3 µM)

Nc1ccc(-c2cc3c(cc2F)c(COC(=O)CCC(=O)O)cc(=O)n3C2CC2)cc1 [J-136, 3-({[7-(4-aminophenyl)-1-cyclopropyl-6-fluoro-2-oxo-4-hydroquinolyl]methyl}oxycarbonyl)propanoic acid]
MIC ratio (Mu50 MIC/FDA209P MIC) (S. aureus Mu50): 0.25
MIC (S. aureus Mu50): 8 µg/mL (≈ 18.8 µM)
MIC [1]: 32 µg/mL (≈ 75.4 µM)

O=c1cc(CO)c2ccc(-c3ccc(O)cc3)c3c2n1CO3 [J-2.1.2, 6-(hydroxymethyl)-9-(4-hydroxyphenyl)oxazolo[5,4,3-ij]quinolin-4(2H)-one]
MIC ratio (Mu50 MIC/FDA209P MIC) (S. aureus Mu50): 0.125
MIC (S. aureus Mu50; Staphylococcus aureus, MRSA): 16 µg/mL (≈ 54.2 µM)
MIC [1, 2]: 128 µg/mL (≈ 433 µM)

Nc1c(CO)c2cc(F)c(-c3ccc(O)cc3)cc2n(C2CC2)c1=O [J-179]
MIC (S. aureus Mu50; Staphylococcus aureus, MRSA): 1 µg/mL (≈ 2.94 µM)
MIC [1, 2]: 0.5 µg/mL (≈ 1.47 µM)
MIC (E. coli strain 1708): 128 µg/mL (≈ 376 µM)
MIC (E. coli strain 1709): 128 µg/mL (≈ 376 µM)

Cn1c(=O)cc(CO)c2cc(F)c(-c3ccc(O)cc3)cc21 [J-131, 6-fluoro-4-(hydroxymethyl)-7-(4-hydroxyphenyl)-1-methylhydroquinolin-2-one]
MIC ratio (Mu50 MIC/FDA209P MIC) (S. aureus Mu50): 0.25
MIC (S. aureus Mu50): 4 µg/mL (≈ 13.4 µM)
MIC [1]: 16 µg/mL (≈ 53.5 µM)

O=C(O)c1c(CO)c2cc(F)c(-c3ccc(O)cc3)cc2n(C2CC2)c1=O [J-169]
MIC (S. aureus Mu50; Staphylococcus aureus, MRSA): 8 µg/mL (≈ 21.7 µM)
MIC [1, 2]: 8 µg/mL (≈ 21.7 µM)
MIC (E. coli strain 1708): 128 µg/mL (≈ 347 µM)
MIC (E. coli strain 1709): 16 µg/mL (≈ 43.3 µM)

CCn1c(=O)cc(CO)c2cc(F)c(-c3ccc(O)cc3)cc21 [J-131E, 1-ethyl-6-fluoro-4-(hydroxymethyl)-7-(4-hydroxyphenyl)hydroquinolin-2-one]
MIC ratio (Mu50 MIC/FDA209P MIC) (S. aureus Mu50): 0.25
MIC (S. aureus Mu50): 0.5 µg/mL (≈ 1.6 µM)
MIC [1]: 2 µg/mL (≈ 6.38 µM)

Cc1cc(=O)n(C)c2cc(-c3ccc(O)cc3)ccc12 [J-121Me]
MIC ratio (Mu50 MIC/FDA209P MIC) (S. aureus Mu50): 0.0313
MIC (S. aureus Mu50; Staphylococcus aureus, MRSA): 4 µg/mL (≈ 15.1 µM)
MIC [1, 2]: 128 µg/mL (≈ 482 µM)

Cn1c(=O)cc(CO)c2ccc3c(c21)OCO3 [J-103, 6-(hydroxymethyl)-9-methyl-9-hydro-2H-1,3-dioxoleno[4,5-h]quinolin-8-one]
MIC ratio (Mu50 MIC/FDA209P MIC) (S. aureus Mu50): 0.125
MIC (S. aureus Mu50): 16 µg/mL (≈ 68.6 µM)
MIC [1]: 128 µg/mL (≈ 549 µM)

Cn1c(=O)cc(CO)c2cc(F)c(-c3ccc(N)cc3)cc21 [J-132, 7-(4-aminophenyl)-6-fluoro-4-(hydroxymethyl)-1-methylhydroquinolin-2-one]
MIC ratio (Mu50 MIC/FDA209P MIC) (S. aureus Mu50): 0.0625
MIC (S. aureus Mu50): 8 µg/mL (≈ 26.8 µM)
MIC [1]: 128 µg/mL (≈ 429 µM)

O=c1cc(O)c2ccc(-c3ccc(O)cc3)c(OC(F)F)c2n1C1CC1 [J-158]
MIC (S. aureus Mu50; Staphylococcus aureus, MRSA): 4 µg/mL (≈ 11.1 µM)
MIC [1, 2]: 8 µg/mL (≈ 22.3 µM)
MIC (E. coli strain 1708): 128 µg/mL (≈ 356 µM)
MIC (E. coli strain 1709): 128 µg/mL (≈ 356 µM)

Cc1cc(=O)n2c3c(c(-c4ccc(O)cc4)c(F)cc13)OCC2C (stereo not drawn) [J-149d]
MIC (S. aureus Mu50; Staphylococcus aureus, MRSA): 0.5 µg/mL (≈ 1.54 µM)
MIC [1, 2]: 1 µg/mL (≈ 3.07 µM)
MIC (E. coli strain 1708): 128 µg/mL (≈ 393 µM)
MIC (E. coli strain 1709): 128 µg/mL (≈ 393 µM)
